Experimental data published in patent publication US10383850B2, “Indazole and indole derivatives as inhibitors of retinoic acid related orphan receptor gamma (ROR gamma) for the treatment of immune-related diseases” (ORCA PHARMACEUTICALS LIMITED, priority 2014, dated 2019).
Like-named read-outs stand apart in the source and are kept apart here.

Assays:
[1] = system: Human CD4+CCR6+ T cells (TH17 cell differentiation); assay: Human Th17 cell differentiation assay (IL-17A in extracellular media by ELISA); format: cell-based; conditions: 96 h, read-out: Inhibition of TH17 cell differentiation - Mean IC50
[2] = molecular target: RORγ ligand binding domain (Homo sapiens (Human), UniProt P51449); assay: RORγ FRET assay (SRC-1 peptide binding to RORγ ligand binding domain)
Experimental: This assay measures the binding of the SRC-1 peptide to the RORγ ligand binding domain in the presence and absence of compound. The SRC-1 peptide was tagged with the streptavidin-europium and the RORγ ligand binding domain was tagged with strepavidin-APC.
Various concentrations of test ligands in 0.1 microliters DMSO were dispensed to assay plates using an Labcyte Echo acoustic dispenser. Two pre-mixes were prepared and incubated for 1 hr at room temp in the dark.
Five microliters of pre-mix 2 was dispensed to assay plates containing test compound and incubated for 15 minutes prior to adding five microliters of pre-mix 1. […] The raw data was transformed to % effect using the equation: Compound % effect=100*[(X−min)/(max−min)], where X represents the normalized value for the compound based on the Min (vehicle) and Max (reference compound) inhibition control.

[3] = IL17A in extracellular media by sandwich ELISA, 4 days with cytokine cocktail and antiCD2/CD3/28 beads

Sequence of RORγ ligand binding domain (P51449 258-518): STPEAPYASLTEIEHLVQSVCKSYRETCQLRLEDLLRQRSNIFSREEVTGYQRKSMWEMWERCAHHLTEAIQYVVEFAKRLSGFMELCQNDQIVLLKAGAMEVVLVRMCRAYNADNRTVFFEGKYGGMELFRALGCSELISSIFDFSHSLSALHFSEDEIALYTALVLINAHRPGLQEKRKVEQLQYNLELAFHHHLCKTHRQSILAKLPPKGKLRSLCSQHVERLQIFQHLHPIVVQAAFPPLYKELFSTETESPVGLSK

SMILES	IC50 [1, 3]	further results
O=C(O)c1ccc(-n2cc(Cc3c(Cl)cccc3C(F)(F)F)c3cccnc32)cc1 [Compound 1, 4-(3-{[2-chloro-6-(trifluoromethyl)phenyl]methyl}-1H-pyrrolo[2,3-b]pyridin-1-yl)benzoic acid]	142 nM	IC50 [2]: 196 nM
O=C(O)c1ccc(-n2cc(Cc3c(Cl)cccc3C(F)(F)F)c3ccccc32)cc1 [Compound 2, 4-(3-{[2-chloro-6-(trifluoromethyl)phenyl]methyl}-1H-indol-1-yl)benzoic acid]	–	IC50 [1]: 33.6 nM; IC50 ([2]; read-out: RORγ FRET - Mean IC50): 71.8 nM
O=C(O)c1ccc(-n2cc(C(=O)c3c(Cl)cccc3C(F)(F)F)c3cncnc32)cc1 [Compound 3, 4-[5-[2-chloro-6-(trifluoromethyl)benzoyl]pyrrolo[2,3-d]pyrimidin-7-yl]benzoic acid]	–	IC50 [1]: 356 nM
COc1cccc(F)c1C(=O)c1cn(-c2ccc(C(=O)O)cc2)c2ccccc12 [Compound 4, 4-[3-(2-fluoro-6-methoxy-benzoyl)indol-1-yl]benzoic acid]	1490 nM	–
COc1cccc(F)c1C(=O)c1cn(-c2ccc(C(=O)O)cc2)c2c(F)cccc12 [Compound 5, 4-[7-fluoro-3-(2-fluoro-6-methoxy-benzoyl)indol-1-yl]benzoic acid]	821 nM	–
O=C(O)c1ccc(-n2cc(Cc3c(Cl)cccc3C(F)(F)F)c3ccccc32)cc1O [Compound 6, 4-[3-[[2-chloro-6-(trifluoromethyl)phenyl]methyl]indol-1-yl]-2-hydroxy-benzoic acid]	4.81 nM	–
Cc1cccc2c(C(=O)c3c(Cl)cccc3C(F)(F)F)cn(-c3ccc(C(=O)O)cc3)c12 [Compound 7, 4-[3-[2-chloro-6-(trifluoromethyl)benzoyl]-7-methyl-indol-1-yl]benzoic acid]	498 nM	–
O=C(O)c1ccc(-n2cc(C(=O)c3c(Cl)cccc3C(F)(F)F)c3cccc(F)c32)nc1 [Compound 8, 6-[3-[2-chloro-6-(trifluoromethyl)benzoyl]-7-fluoro-indol-1-yl]pyridine-3-carboxylic acid]	39.5 nM	–
Cc1cccc2c(C(=O)c3c(Cl)cccc3Cl)cn(-c3ccc(C(=O)O)cc3)c12 [Compound 9, 4-[3-(2,6-dichlorobenzoyl)-7-methyl-indol-1-yl]benzoic acid]	1600 nM	–
COc1cccc(F)c1C(=O)c1nn(-c2ccc(C(=O)O)cc2)c2ccccc12 [Compound 10, 4-[3-(2-fluoro-6-methoxy-benzoyl)indazol-1-yl]benzoic acid]	455 nM	–
O=C(O)c1ccc(-n2cc(C(=O)c3c(F)cccc3OC(F)(F)F)c3cccc(F)c32)cc1 [Compound 12, 4-[7-fluoro-3-[2-fluoro-6-(trifluoromethoxy)benzoyl]indol-1-yl]benzoic acid]	192 nM	–
O=C(O)c1ccc(-n2cc(C(=O)c3c(F)cccc3OC(F)(F)F)c3cccc(F)c32)c(F)c1 [Compound 13, 3-fluoro-4-[7-fluoro-3-[2-fluoro-6-(trifluoromethoxy)benzoyl]indol-1-yl]benzoic acid]	181 nM	–
O=C(O)c1ccc(-n2cc(C(=O)c3c(F)cccc3OC(F)(F)F)c3ccccc32)cc1 [Compound 14, 4-[3-[2-fluoro-6-(trifluoromethoxy)benzoyl]indol-1-yl]benzoic acid]	338 nM	–
